Measured values published in patent US8222284B2, “Stable formulations of thiadiazole derivative” (Eli Lilly and Company, priority 2007, dated 2012).

How the values were obtained:
Format in all cases: physicochemical
[1] = Enantiomeric (chiral) stability of the compound in buffer solutions, chiral HPLC assay
Protocol: (§1) Stability for N-{4-(2,2-dimethyl-propionyl)-(5R)-5-[(2-ethylamino-ethanesulfonylamino)-methyl]-5-phenyl-4.5-dihydro-[1,3,4]thiadiazol-2-yl}-2,2-dimethyl-propionamide (the compound) is assessed at 0.1 mg/mL in various buffers adjusted from pH 2 through 8 with various pH adjusting agents (e.g. 0.1 and 1 N HCl; 0.1, 1, and 5 N NaOH) and at different storage conditions (e.g. 5° C., 25° C., and 40° C. at 75% relative humidity). Hereinafter, the 40° C. at 75% relative humidity storage condition will be referred to as 40° C. These buffers include 10 mM and 50 mM tartrate (40° C.), 10 mM phosphate (25 and 40° C.), 50 mM phosphate (40° C.), and 10 mM citrate (25 and 40° C. Additional solution stability studies include 10 mM citrate (pH 8; 5° C., 25° C., and 40° C.) and 10 mM NaCl, 10 mM sodium sulfate, 10 mM mesylate, 10 mM tartrate, 10 mM phosphate, and 10 mM citrate (pH 8, 40° C). Lyophilized stability studies for N-{4-(2,2-dimethyl-propionyl)-(5R)-5-[(2-ethylamino-ethanesulfonylamino)-methyl]-5-phenyl-4,5-dihydro-[1,3,4]thiadiazol-2-yl}- 2-dimethyl-propionamide involve solutions containing 10 mM tartrate buffer at pH 3 which are lyophilized and subjected to storage at 5° C., 25° C., and 40 ° C. for 1, 3, and 6 months. Finally, the enantiomeric stability for N-{4-(2,2-dimethyl-propionyl)-(5R)-5-[(2-ethylamino-ethanesulfonylamino-methyl]-5-phenyl-4,5-dihydro-[1,3,4]thiadiazol-2-yl}-2,2-dimethyl-propionamide is assessed when dissolved in various organic solvents and aqueous/solvent mixtures, including methanol, ethanol, acetonitrile, acetone, ethyl acetate, and 50% ethanol/50% water (all at 25° C. and 40° C.) and in 1-octanol (25° C.).
(§2) The enantiomeric stability is measured with a chiral HPLC assay employing polar ionic separation conditions. Those conditions include Column: Chirobiotic T, 150×4.6 mm; Detector UV, 290 nm; Flow: 0.225-0.35 mL/min., adjust to optimize chiral separation; injection: 2 μL-10 μL; Column Temperature: 45° C.; Mobile Phase: 0.01% TEA, 1.0% HOAc, 1.0% water (DIW) in methanol. Enantioselectivity is very sensitive to mobile phase composition, specifically the acid:base ratio. For this reason, the TEA and HOAc additives are accurately measured and then delivered by pipette into the mobile phase while stirring.

[2] = Enantiomeric stability when dissolved in organic solvents and aqueous/solvent mixtures
Protocol: as §1
The enantiomeric stability is measured with a chiral HPLC assay employing polar ionic separation conditions. […] For this reason, the TEA and HOAc additives are accurately measured and then delivered by pipette into the mobile phase while stirring.

[3] = Lyophilized stability study (10 mM tartrate buffer pH 3, lyophilized and stored), chiral conversion
Protocol: as §1, §2

- chiral conversion of the compound ([1]; 10 mM citrate buffer, pH 2.1, at least 96 hours, 40° C.): no chiral conversion
- chiral conversion of the compound ([1]; 10 mM citrate buffer, pH 2.1, at least 120 hours, 25° C.): no chiral conversion
- chiral conversion of the compound ([1]; 10 mM citrate buffer, pH 3.3, at least 96 hours, 40° C.): no chiral conversion
- chiral conversion of the compound ([1]; 10 mM citrate buffer, pH 3.3, at least 120 hours, 25° C.): no chiral conversion
- chiral conversion of the compound ([1]; 10 mM citrate buffer, pH 4.2, at least 96 hours, 40° C.): no chiral conversion
- chiral conversion of the compound ([1]; 10 mM citrate buffer, pH 4.2, at least 120 hours, 25° C.): no chiral conversion
- % of the compound remains ([1]; 10 mM citrate buffer, pH 8.4, 24 hours, 25° C.): 95.8%
- % of the compound remains ([1]; 10 mM citrate buffer, pH 8.4, 120 hours, 5° C.): 99.3%
- chiral conversion of the compound ([1]; 10 mM sodium phosphate buffer, pH 2.3, at least 120 hours, 25° C.): no chiral conversion
- chiral conversion of the compound ([1]; 10 mM sodium phosphate buffer, pH 2.3, at least 120 hours, 40° C.): no chiral conversion
- chiral conversion of the compound ([1]; 10 mM sodium phosphate buffer, pH 3.4, at least 120 hours, 25° C.): no chiral conversion
- chiral conversion of the compound ([1]; 10 mM sodium phosphate buffer, pH 3.4, at least 120 hours, 40° C.): no chiral conversion
- chiral conversion of the compound ([1]; 10 mM sodium phosphate buffer, pH 5.4, at least 120 hours, 25° C.): no chiral conversion
- chiral conversion of the compound ([1]; 10 mM sodium phosphate buffer, pH 5.4, at least 120 hours, 40° C.): no chiral conversion
- chiral conversion of the compound ([1]; 10 mM tartrate buffer, pH 2.1, at least 96 hours, 40° C., 0.1 mg/mL): no chiral conversion
- chiral conversion of the compound ([1]; 10 mM tartrate buffer, pH 3.1, at least 96 hours, 40° C., 0.1 mg/mL): no chiral conversion
- chiral conversion of the compound ([1]; 10 mM tartrate buffer, pH 4,1, at least 96 hours, 40° C., 0.1 mg/mL): no chiral conversion
- % of the compound remains ([1]; 10 mM tartrate buffer, pH 6.2, 96 hours, 40° C.): 97.5%
- % of the compound remains ([1]; 10 mM tartrate buffer, pH 8.7, 96 hours, 40° C.): 60.3%
- chiral conversion of the compound ([1]; 50 mM phosphate buffer, pH 2.2, at least 96 hours, 40° C.): no chiral conversion
- chiral conversion of the compound ([1]; 50 mM phosphate buffer, pH 3.3, at least 96 hours, 40° C.): no chiral conversion
- chiral conversion of the compound ([1]; 50 mM phosphate buffer, pH 5.0, at least 96 hours, 40° C.): no chiral conversion
- chiral conversion of the compound ([1]; 50 mM tartrate buffer, pH 2.0, at least 120 hours, 40° C., 0.1 mg/mL): no chiral conversion
- chiral conversion of the compound ([1]; 50 mM tartrate buffer, pH 2.9, at least 120 hours, 40° C., 0.1 mg/mL): no chiral conversion
- chiral conversion of the compound ([1]; 50 mM tartrate buffer, pH 3.9, at least 120 hours, 40° C., 0.1 mg/mL): no chiral conversion
- % of the compound remains ([1]; citrate buffer, pH 6.2, 96 hours, 40° C.): 98.2%
- % of the compound remains ([1]; citrate buffer, pH 6.2, 120 hours, 25° C.): 99.9%
- stability / conversion to the S enantiomeric form, compared with the other solvents tested ([2]; in 50% ethanol/50% water (25° C. and 40° C.)): less stable
- stability / conversion to the S enantiomeric form, compared with the other solvents tested ([2]; in acetonitrile (25° C. and 40° C.)): less stable
- stability / conversion to the S enantiomeric form, compared with the other solvents tested ([2]; in ethyl acetate (25° C. and 40° C.)): less stable
- chiral conversion of the compound ([3]; lyophilized formulation pH 3.0, 1 month, 5° C.): no chiral conversion
- chiral conversion of the compound ([3]; lyophilized formulation pH 3.0, 1 month, 25° C.): no chiral conversion
- chiral conversion of the compound ([3]; lyophilized formulation pH 3.0, 1 month, 40° C. (75% relative humidity)): no chiral conversion
- chiral conversion of the compound ([3]; lyophilized formulation pH 3.0, 3 months, 5° C.): no chiral conversion
- chiral conversion of the compound ([3]; lyophilized formulation pH 3.0, 3 months, 25° C.): no chiral conversion
- chiral conversion of the compound ([3]; lyophilized formulation pH 3.0, 3 months, 40° C. (75% relative humidity)): no chiral conversion
- chiral conversion of the compound ([3]; lyophilized formulation pH 3.0, 6 months, 5° C.): no chiral conversion
- chiral conversion of the compound ([3]; lyophilized formulation pH 3.0, 6 months, 25° C.): no chiral conversion
- chiral conversion of the compound ([3]; lyophilized formulation pH 3.0, 6 months, 40° C. (75% relative humidity)): no chiral conversion
Compound: CCNCCS(=O)(=O)NC[C@@]1(c2ccccc2)SC(NC(=O)C(C)(C)C)=NN1C(=O)C(C)(C)C [the compound, N-{4-(2,2-dimethyl-propionyl)-(5R)-5-[(2-ethylamino-ethanesulfonylamino)-methyl]-5-phenyl-4,5-dihydro-[1,3,4]thiadiazol-2-yl}-2,2-dimethyl-propionamide]
